Assays:
Type in all cases: cell-based
human PMN [1] = assay: PMN cytosolic calcium ([Ca2+]i) flux
From the text: (§1) PMN isolation (Hauser et al., J. Leukoc. Biol. 69:63-68, 2001; Fekete et al., Shock 16:15-20, 2001), cytosolic calcium studies (Hauer et al., J. Leukoc. Biol. 69:63-68, 2001; Hauser et al., J. Trauma 48:592-598, 2000; Tarlowe et al., J. Immunol. 171:2066-2073, 2003; Grynkiewicz et al., J. Biol. Chem. 260:2440-2450, 1985), IL-8 synthesis measurement by ELISA (Zallen et al., J. Trauma 46:42-48, 1999), cell signaling by Western blots (Zhang et al., Life Sci. 77:3068-3077, 2005), transwell chemotaxis (Tarlowe et al., J. Immunol. 171:2066-2073, 2003), and video-microscopy chemotaxis assays (Chen et al., Science 314:1792-1795, 2006) were performed as previously described.
Study data was assessed for statistical significance using Student's (unpaired) t-test or Analysis of Variance (ANOVA) where appropriate using a SigmaStat program with post-hoc tests chosen by the computer. [Ca^2+]i transients are reported as the mean change from basal [Ca^2+]i in nanomoles per liter (nM/L). Prolonged [Ca^2+]i fluxes are reported as the area under the curve (AUC) of measured change from basal [Ca^2+]i over the observation period (nM·sec). All data are reported as mean±s.e.m. with significance accepted at p<0.05.

PMN = conditions: for PMN chemotaxis to the agent: MTD 100 μg/ml, mtDNA 10 μg/ml, CpG DNA 10 μg/ml, LPS 1 μg/ml
From the text: as §1
Time-lapse video-microscopic chemotaxis was assayed as described previously (Chen et al., Science 314:1792-1795, 2006). Cells were exposed to a chemoattractant gradient field by slowly releasing MTD (˜100 μg/ml) or fMLF (10 nM) from a micropipette tip placed in proximity to the cells. The migration paths of individual cells were plotted using Adobe Illustrator. […] Experiments were repeated with multiple PMN and MTD isolates.

human PMN [2] = assay: PMN p38 and p44/42 MAPK phosphorylation (Western blot); conditions: chloroquine 10 μg/mL
Protocol: (§2) PMN degranulation was assessed by measuring MMP-8 release. Human PMNs were suspended in HBSS with 1.8 mM Ca^2+ at 37° C. for 10 minutes while exposed to MTD, mtDNA, or fMLF at indicated concentrations. […] After stimulation, PMN were placed on ice and centrifuged. Supernatants were then assayed for MMP-8 by Western blot. Residual PMN were lysed to assay for MAPKs.
(§3) PMN activation was assessed by measuring MMP-8/9 degranulation and intracellular MAPK phosphorylation. Human PMN were exposed to mtDNA and nDNA at 1-100 μg/mL, 30 minutes at 37° C. After stimulation, PMN were placed on ice and centrifuged (10,000 g at 4° C. for 2 minutes) to obtain supernatants, which were then assayed for MMP-8 and MMP-9 by Western blot as described below. M-PER (Pierce, Rockford, Ill.) was then used to lyse the PMN cell pellets for determination of total and phosphorylated MAPKs by Western blot as described below. Total protein concentration of the lysates was determined by BCA assay.
(§4) Rat liver homogenates and supernatants from human PMN or human PMN lysates were boiled for 5 minutes in SDS sample buffer. Proteins were separated by SDS-PAGE using a […] polyacrylamide gel. Tris-glycine polyacrylamide gradient gels were purchased from Novex (San Diego, Calif.). Separated proteins were transferred to nitrocellulose membrane (0.45 μm pore size; Bio-Rad, Hercules, Calif.). […]

human PMN [3] = conditions: mtDNA 100 μg/mL; preincubation with chloroquine 10 μg/mL
Protocol: as §2, §3, §4

## Nc1ncnc2c1ncn2[C@@H]1O[C@H](COP(=O)(O)OP(=O)(O)OP(=O)(O)O)[C@@H](O)[C@H]1O [ATP]
Human PMN [1]; 1 μM
  PMN [Ca2+]i mobilization: mobilizes

## C/C=C/C[C@@H](C)[C@@H](O)[C@H]1C(=O)N[C@@H](CC)C(=O)N(C)CC(=O)N(C)[C@@H](CC(C)C)C(=O)N[C@@H](C(C)C)C(=O)N(C)[C@@H](CC(C)C)C(=O)N[C@@H](C)C(=O)N[C@H](C)C(=O)N(C)[C@@H](CC(C)C)C(=O)N(C)[C@@H](CC(C)C)C(=O)N(C)[C@H](C(C)C)C(=O)N1C [CsH, Cyclosporin H]
Human PMN [1]; human PMN
  FPR-induced calcium depletion: specifically inhibits
PMN; CsH 1 μM, fMLF 10 nM
  PMN migrating to fMLF, effect of inhibitor: significantly inhibits
PMN; CsH, IL-8 10 nM
  PMN chemotaxis to IL-8, effect of inhibitor: no effects

## CCN(CC)CCCC(C)Nc1ccnc2cc(Cl)ccc12 (stereo not drawn) [chloroquine]
Human PMN [2]; mtDNA 100 μg/mL
  phosphorylation of p38 MAPK in response to mtDNA, effect of inhibitor: not inhibited
Human PMN [2]; mtDNA 1 and 5 μg/mL, 30 minutes, 37° C.
  p38 MAPK responses to mtDNA, effect of inhibitor: markedly inhibited
Human PMN [3]
  mtDNA-induced release of MMP-8 and -9, effect of inhibitor: suppressed

## CSCC[C@H](NC=O)C(=O)N[C@@H](CC(C)C)C(=O)N[C@@H](Cc1ccccc1)C(=O)O [fMLF, N-formyl-methionyl-leucyl-phenylalanine]
PMN; fMLF 10 nM, IL-8 10 nM
  PMN chemotaxis to the agent: shows chemotaxis

## IL-8: chemokine used as chemoattractant
PMN; fMLF 10 nM, IL-8 10 nM
  PMN chemotaxis to the agent: shows chemotaxis

Source: patent publication US20120263736A1, “METHOD FOR PREDICTING AND TREATING A STERILE INFLAMMATION AND DISCRIMINATING BETWEEN STERILE AND INFECTIVE INFLAMMATION” (Beth Israel Deaconess Medical Center, Inc., priority 2009, published 2012)
